Consider 19 molecules from patent US8207176B2 (Glaxo Group Limited, priority 2005, dated 2012).

The test relates to influx of neutrophils to the lung in LPS-challenged rats. As to the kind of experiment: Rat LPS neutrophilia model. In kind it is in vivo. The note with it: intratracheal, LPS aerosol 100 ug/ml 15 min, lavage 4 hours later, in at least one of the range of conditions tested, significant p<0.05, nonsignificant p>0.05. The protocol: The effect of compounds on the influx of neutrophils to the lung in LPS-challenged rats is evaluated as follows. The test compound is suspended in one of the following solutions: 0.5% tween 80/PBS, 0.5% tween 80/saline, 10% EtOH/saline (with pH adjusted to 2.0, or 8.0 with HCl, or unadjusted), Saline @ pH 2.0, 6.5 or 8.0, 0.5% Tragacanth, 1% DMSO/20% Encapsin/Saline, or acidified 5% Tragacanth. The suspension process may be aided by the use of a glass homogenizer. For intratracheal administration, the animals are anesthetized with inhaled isoflurane and placed in a supine position, the trachea is intubated with a steel gavage needle (1.5 inch, 22 gauge, small ball) or a Penn-Century Microsprayer Aerosolizer (model IA-IB) and 200 ul of dosing solution is delivered. The animals are visually monitored during the recovery process, which typically occurs within two minutes. It is noted that the test compounds may be alternatively administered via the microsprayer in a dry powder blend with a suitable excipient, such as lactose.
Rats treated with compound or vehicle (15 min-24 hours pretreatment) are exposed to an LPS aerosol (100 ug/ml) for 15 min. Four hours later the rats are euthanized with pentobarbital (100 mg/kg, i.p.) and the airways are lavaged with 5 washes of 5 ml of phosphate buffered saline. The harvested cells are stained (Diffquick) and counted to determine total and differential cell data. […] Inhibition of neutrophil levels relative to no compound controls is calculated based on the differential counts.
The data is obtained as % inhibition using a particular concentration and pretreat time.

“Also recorded” adds a separate entry of the source. Structures can show the parent of a compound that is named as a salt.

For the molecule `Cc1ccc(C(=O)Nc2ccc(F)cc2)cc1-c1nc(NCCN(C)C(=O)OC(C)(C)C)nc2c1ccc(=O)n2-c1c(F)cccc1F` [Example 95, 1,1-dimethylethyl (2-{[8-(2,6-difluorophenyl)-4-(5-{[(4-fluorophenyl)amino]carbonyl}-2-methylphenyl)-7-oxo-7,8-dihydropyrido[2,3-d]pyrimidin-2-yl]amino}ethyl)methylcarbamate], the “inhibition of neutrophilia (neutrophil levels in lung lavage relative to no compound controls)” value is reported as “statistically nonsignificant inhibition”.

For the molecule `CCN(CC)CCCNc1nc(-c2cc(C(=O)NCC3CCCCC3)ccc2C)c2ccc(=O)n(-c3c(F)cccc3F)c2n1` [Example 135, N-(cyclohexylmethyl)-3-[2-{[3-(diethylamino)propyl]amino}-8-(2,6-difluorophenyl)-7-oxo-7,8-dihydropyrido[2,3-d]pyrimidin-4-yl]-4-methylbenzamidetrifluoroacetate], the “inhibition of neutrophilia (neutrophil levels in lung lavage relative to no compound controls)” value was “inactive”.

Regarding `Cc1ccc(C(=O)Nc2ccc(F)cc2)cc1-c1nc(N2CCC(N3CCC(C)CC3)CC2)nc2c1ccc(=O)n2-c1c(F)cccc1F` [Example 174, 3-[8-(2,6-difluorophenyl)-2-(4-methyl-1,4′-bipiperidin-1′-yl)-7-oxo-7,8-dihydropyrido[2,3-d]pyrimidin-4-yl]N-(4-fluorophenyl)-4-methylbenzamide], the “inhibition of neutrophilia (neutrophil levels in lung lavage relative to no compound controls)” value was “inactive”.

With `CCN(CC)CCCNc1nc(-c2cc(C(=O)NC3CC3)cc(F)c2C)c2ccc(=O)n(-c3c(F)cccc3F)c2n1` [Example 185, N-cyclopropyl-3-[2-{[3-(diethylamino)propyl]amino}-8-(2,6-difluorophenyl)-7-oxo-7,8-dihydropyrido[2,3-d]-pyrimidin-4-yl]-5-fluoro-4-methylbenzamide], the “inhibition of neutrophilia (neutrophil levels in lung lavage relative to no compound controls)” value was “statistically nonsignificant inhibition”.

With `Cc1ccc(C(=O)NC2CCCC2)cc1-c1nc(N2CCC(N3CCC(C)CC3)CC2)nc2c1ccc(=O)n2-c1c(F)cccc1F` [Example 169, N-cyclopentyl-3-[8-(2,6-difluorophenyl)-2-(4-methyl-1,4′-bipiperidin-1′-yl)-7-oxo-7,8-dihydropyrido[2,3-d]pyrimidin-4-yl]-4-methylbenzamide], the “inhibition of neutrophilia (neutrophil levels in lung lavage relative to no compound controls)” value was “statistically nonsignificant inhibition”.

For the molecule `Cc1ccc(C(=O)NC2CCCC2)cc1-c1nc(NCc2ncc[nH]2)nc2c1ccc(=O)n2-c1c(F)cccc1F` [Example 76, N-cyclopentyl-3-{8-(2,6-difluorophenyl)-2-[(1H-imidazol-2-ylmethyl)amino]-7-oxo-7,8-dihydropyrido[2,3-d]pyrimidin-4-yl}-4-methylbenzamide], the “inhibition of neutrophilia (neutrophil levels in lung lavage relative to no compound controls)” value is reported as “statistically nonsignificant inhibition”.

In the case of `CNCCNc1nc(-c2cc(C(=O)NCCc3ccccc3)ccc2C)c2ccc(=O)n(-c3c(F)cccc3F)c2n1` [Example 29, 3-(8-(2,6-difluorophenyl)-2-{[2-(methylamino)ethyl]amino}-7-oxo-7,8-dihydropyrido[2,3-d]pyrimidin-4-yl)-4-methyl-N-(2-phenylethyl)benzamide], the “inhibition of neutrophilia (neutrophil levels in lung lavage relative to no compound controls)” value was “statistically significant inhibition”.

In the case of `Cc1ccc(C(=O)NC2CCC2)cc1-c1nc(N2CCC(N3CCC(C)CC3)CC2)nc2c1ccc(=O)n2-c1c(F)cccc1F` [Example 175, N-cyclobutyl-3-[8-(2,6-difluorophenyl)-2-(4-methyl-1,4′-bipiperidin-1′-yl)-7-oxo-7,8-dihydropyrido[2,3-d]pyrimidin-4-yl]-4-methylbenzamide], the “inhibition of neutrophilia (neutrophil levels in lung lavage relative to no compound controls)” value is “inactive”.

Consider `Cc1ccc(C(=O)Nc2ccc(F)cc2)cc1-c1nc(N(C)CCN(C)C)nc2c1ccc(=O)n2-c1c(F)cccc1F` [Example 99, 3-{8-(2,6-difluorophenyl)-2-[[2-(dimethylamino)ethyl](methyl)amino]-7-oxo-7,8-dihydropyrido[2,3-d]pyrimidin-4-yl}-N-(4-fluorphenyl)-4-methylbenzamide], for which the “inhibition of neutrophilia (neutrophil levels in lung lavage relative to no compound controls)” value is on record as “statistically nonsignificant inhibition”.

As to `Cc1ccc(C(=O)NC(C)C)cc1-c1nc(N2CCC(N)CC2)nc2c1ccc(=O)n2-c1c(F)cccc1F` [Example 68, 3-[2-(4-amino-1-piperidinyl)-8-(2,6-difluorophenyl)-7-oxo-7,8-dihydropyrido[2,3-d]pyrimidin-4-yl]-4-methyl-N-(1-methylethyl)benzamide], the “inhibition of neutrophilia (neutrophil levels in lung lavage relative to no compound controls)” value is given as “statistically significant inhibition”.

Consider `Cc1ccc(C(=O)NCC(F)(F)F)cc1-c1nc(N2CCC(N3CCC(C)CC3)CC2)nc2c1ccc(=O)n2-c1c(F)cccc1F` [Example 172, 3-[8-(2,6-difluorophenyl)-2-(4-methyl-1,4′-bipiperidin-1′-yl)-7-oxo-7,8-dihydropyrido[2,3-d]pyrimidin-4-yl]-4-methyl-N-(2,2,2-trifluoroethyl)benzamide], for which the “inhibition of neutrophilia (neutrophil levels in lung lavage relative to no compound controls)” value is “inactive”.

With `Cc1ccc(C(=O)Nc2nccs2)cc1-c1nc(NC2CC(C)(C)NC(C)(C)C2)nc2c1ccc(=O)n2-c1c(F)cccc1F` [Example 67, 3-{8-(2,6-difluorophenyl)-7-oxo-2-[(2,2,6,6-tetramethyl-4-piperidinyl)amino]-7,8-dihydropyrido[2,3-d]pyrimidin-4-yl}-4-methyl-N-1,3-thiazol-2-ylbenzamide], the “inhibition of neutrophilia (neutrophil levels in lung lavage relative to no compound controls)” value is given as “statistically nonsignificant inhibition”.

In the case of `Cc1ccc(C(=O)NC2CC2)cc1-c1nc(N2CCC(N3CCC(C)CC3)CC2)nc2c1ccc(=O)n2-c1c(F)cccc1F` [Example 178, N-cyclopropyl-3-[8-(2,6-difluorophenyl)-2-(4-methyl-1,4′-bipiperidin-1′-yl)-7-oxo-7,8-dihydropyrido[2,3-d]pyrimidin-4-yl]-4-methylbenzamide], the “inhibition of neutrophilia (neutrophil levels in lung lavage relative to no compound controls)” value was “statistically nonsignificant inhibition”.

Consider `CCN(CC)CCCNc1nc(-c2cc(C(=O)NCC3CC3)ccc2C)c2ccc(=O)n(-c3c(F)cccc3F)c2n1` [Example 138, N-(cyclopropylmethyl)-3-[2-{[3-(diethylamino)propyl]amino}-8-(2,6-difluorophenyl)-7-oxo-7,8-dihydropyrido[2,3-d]pyridin-4-yl]-4-methylbenzamide trifluoroacetate], for which the “inhibition of neutrophilia (neutrophil levels in lung lavage relative to no compound controls)” value is on record as “statistically nonsignificant inhibition”.

For the molecule `CCN(CC)CCCNc1nc(-c2cc(C(=O)NC3CCC3)ccc2C)c2ccc(=O)n(-c3c(F)cccc3F)c2n1` [Example 137, N-cyclobutyl-3-[2-{[3-(diethylamino)propyl]amino}-8-(2,6-difluorophenyl)-7-oxo-7,8-dihydropyrido[2,3-d]pyrimidin-4-yl]-4-methylbenzamide trifluoroacetate], the “inhibition of neutrophilia (neutrophil levels in lung lavage relative to no compound controls)” value is listed as “statistically significant inhibition”.

On to `CCN(CC)CCCNc1nc(-c2cc(C(=O)N(C)C)ccc2C)c2ccc(=O)n(-c3c(F)cccc3F)c2n1` [Example 120, 3-[2-{[3-(diethylamino)-propyl]amino}-8-(2,6-difluorophenyl)-7-oxo-7,8-dihydropyrido[2,3-d]-pyrimidin-4-yl]-N,N,4-trimethylbenzamide], for which the “inhibition of neutrophilia (neutrophil levels in lung lavage relative to no compound controls)” value is “statistically nonsignificant inhibition; also recorded: inactive”.

As for `CCCNC(=O)c1cc(F)c(C)c(-c2nc(NCCCN(CC)CC)nc3c2ccc(=O)n3-c2c(F)cccc2F)c1` [Example 181, 3-[2-{[3-(diethylamino)propyl]amino}-8-(2,6-difluorophenyl)-7-oxo-7,8-dihydropyrido[2,3-d]-pyrimidin-4-yl]-5-fluoro-4-methyl-N-propylbenzamide], the “inhibition of neutrophilia (neutrophil levels in lung lavage relative to no compound controls)” value is reported as “statistically nonsignificant inhibition”.

For `CCN(CC)CCCNc1nc(-c2cc(C(=O)NCCOC)ccc2C)c2ccc(=O)n(-c3c(F)cccc3F)c2n1` [Example 134, 3-[2-{[3-(diethylamino)propyl]amino-}8(2,6-difluorophenyl)-7-oxo-7,8-dihydropyrido[2,3-d]pyrimidin-4-yl]-4-methyl-N-[2-(methyloxy)ethyl]benzamidetrifluoroacetate], the “inhibition of neutrophilia (neutrophil levels in lung lavage relative to no compound controls)” value is “statistically nonsignificant inhibition”.

In the case of `Cc1ccc(C(=O)Nc2nccs2)cc1-c1nc(NCCCNC(C)C)nc2c1ccc(=O)n2-c1c(F)cccc1F` [Example 101, 3-[8-(2,6-difluorophenyl)-2-({3-[(1-methylethyl)amino]propyl}amino)-7-oxo-7,8-dihydropyrido[2,3-d]pyrimidin-4-yl]-4-methyl-N-1,3-thiazol-2-ylbenzamide], the “inhibition of neutrophilia (neutrophil levels in lung lavage relative to no compound controls)” value is listed as “statistically significant inhibition”.
